Data from patent publication US20070016978A1, “PLANTS HAVING AN ENHANCED RESISTANCE TO NECROTROPHIC PATHOGENS AND METHOD OF MAKING SAME” (priority 2005, published 2007).

Legend:
C. higginsianum [1] = assay: Growth of C. higginsianum in liquid Fries minimal medium; format: cell-based, Colletotrichum higginsianum; settings: G3P added in minimal medium containing a preferred carbon source like sucrose or glycerol; 10 mM G3P, 5 days, 30° C.
Source text: (§1) Several lines of evidence point to G3P levels as being of primary importance. […] Secondly, the gli1 and gly1 plants, with lower levels of G3P, are slightly more susceptible to C. higginsianum.

C. higginsianum [2] = assay: Anthracnose lesion development on Arabidopsis leaves infiltrated with G3P before infection; format: in vivo; settings: infiltration of G3P into Arabidopsis leaves prior to infection
Protocol: as §1
Inoculation with Peronospora parasitica Emco5 is conducted as described in Kachroo et al., 2001. Inoculation with Colletotrichum higginssianum is carried out by spraying the spores at a concentration of […] and spot inoculating at a concentration of 104-105/ml. After inoculation, the plants are covered with a transparent plastic dome and kept in a growth chamber at 22° C., 65% relative humidity and 14 hour photoperiod. Infections are evaluated every day and scored for disease at 4-6 dpi. Inoculation with Pseudomonas syringae is conducted as described in Shah et al., 2001.

PDF1.2 gene = PDF1.2 gene expression in response to JA (RNA gel blot); format: in vivo, Arabidopsis; settings: ssi2 fad7 and ssi2 fad7 fad8 plants, 50 μM JA, 48 h post treatment
Protocol: Small-scale extraction of RNA from one or two leaves is performed in the TRIzol reagent (Invitrogen, Gaithersburg, Md.) following the manufacturer's instructions. Northern blot analysis and synthesis of random primed probes for PR-1, PR-2 and PDF1.2 are carried out as described in Kachroo et al., 2001.
(§2) JA treatments are carried out as described in Kachroo et al., 2001.
FIGS. 5(A)-5(I) illustrate glycerol-mediated effects on mutants impaired in various fatty add desaturation (fad) steps and double mutant analysis of ssi2 in different fad backgrounds. […] RNA gel blot analysis was performed on […] of total RNA extracted from 4-week-old soil-grown plants. Ethidium bromide staining of rRNA was used as a loading control. […] The values presented are averages of three replicates. FIG. 5(D) is a plot showing glycerol-induced changes in the 18:1 levels in leaf tissue of four-week-old plants. The ssi2 gly1 and ssi2 act1 plants were used as controls. […] FIG. 5(F) comprises a series of microscopies of trypan blue-stained leaves from ssi2 and various ssi2 fad double- and triple-mutant plants. FIG. 5(G) illustrates expression of the PR-1 and PR-2 genes in wt, ssi2, and various ssi2 fad double and triple mutant plants. […] Samples were harvested 48 h post treatment and analyzed by RNA gel blot analysis performed on 7 μg of total RNA. […]

SA and SAG levels = assay: Endogenous SA and SAG levels in leaves of glycerol-treated plants; format: in vivo, Arabidopsis; settings: for induction in SA levels / induction in the SAG levels: glycerol- versus water-treated, 50 mM glycerol
Protocol: (§3) SA and SA glucoside (SAG) are extracted and measured from 0.2-0.3 g of fresh weight leaf tissue, as described in Chandra-Shekara et al., 2004. FA analysis is carried out as described in Dahmer et al., 1989; and He et al., 2002. Lipids are extracted as described in Welti et al., 2002. Lipid profiles and acyl group identification are carried out using an automated electrospray ionization-tandem mass spectrometry facility available at the Kansas Lipidomics Center.
as §2
(§4) Ethidium bromide staining of rRNA used as a loading control. FIG. 3(D) is a graph showing growth of P. parasitica biotype Emco5 on various plant genotypes listed at the left. The Landsberg (Ler) ecotype used as the resistant control. […] The shade of each box indicates the severity of infection, based on the number of sporangiophores per cotyledon (see key at the right). FIG. 3(E) is a plot showing glycerol-induced changes in the 18:1 levels in leaf tissue of 4-week-old plants.

18:1 levels = assay: Leaf 18:1 content after glycerol application (GC); format: in vivo, Arabidopsis; settings: wt and plants impaired in the SA signaling pathway, three days after glycerol application
Protocol: as §3, §2, §4

[3] = system: Peronospora parasitica biotype Emco5; settings: glycerol-treated npr1 plants, glycerol 72 h prior to inoculation
PR-1 gene = settings: exogenous application on wt plants; cited from earlier work

SMILES: O=P(O)(O)OCC(O)CO (centres unmarked) [G3P, glycerol-3-phosphate]
- inhibition of fungal growth (C. higginsianum [1]): ~3 fold
- necrosis triggered by the fungus at the site of entry (C. higginsianum [2]): significantly reduced necrosis

SMILES: CC/C=C\C[C@H]1C(=O)CC[C@@H]1CC(=O)O [JA, jasmonic acid]
- PDF1.2 expression (PDF1.2 gene): basal level expression of PDF1.2

SMILES: OCC(O)CO [glycerol]
- induction in SA levels (SA and SAG levels; Columbia-O (Col-O) plants): 13 fold
- induction in the SAG levels (SA and SAG levels; Columbia-O (Col-O) plants): 10 fold
- induction in SA levels (SA and SAG levels; Nossen (No) plants): 10 fold
- induction in the SAG levels (SA and SAG levels; Nossen (No) plants): 8 fold
- SA levels upon glycerol treatment, lower than in wt plants (SA and SAG levels; fad7 and fad7 fad8 plants versus glycerol-treated wt): 3 fold
- leaf 18:1 levels (18:1 levels): drastic reduction in their 18:1 levels
- reduction in the number of susceptible plants [3]: about 60%
- PR-1 gene expression (PR-1 gene): induction of PR-1 gene expression
